In one data set the target is T1, FASN (Homo sapiens, UniProt P49327).
T1 construct: lysates of the prostate tumor line (PC3), which expresses FASN; endogenous in cells; host or cells: PC-3 prostate tumour cells (whole cell lysate)
Briefly: Competition with activity-based probe FP-PEG-TAMRA in PC-3 whole cell lysate: FASN. It counts as binding. As to conditions: PC-3 lysate, 20 μM final, pH 7.8. How it is done:
Studies were conducted to determine the selectivity of compound 16 for FASN over other human thioesterases. The ability of the compounds to bind the FASN holoenzyme was tested by assessing their ability to compete for the binding of an activity-based probe that covalently attaches to the active site of the FASN thioesterase. Thioesterases are members of the serine hydrolase family, which also includes a number of other types of enzymes including proteases, dipeptidyl peptidases, epoxide hydrolases, etc. To help assess the selectivity of compound 16, an activity-based probe polyethyleneglycol-6-carboxytetramethyl-rhodamine (FP-PEG-TAMRA) that binds covalently to the catalytic serine of all serine hydrolases was used. These studies were done by assessing the ability of compound 16 to compete for the binding of the activity-based probe in whole cell lysates. Several analogs of compound 16 were tested in this assay using lysates of the prostate tumor line (PC3), which expresses FASN, along with numerous other serine hydrolases. The PC-3 lysate was incubated with 8 different FASN inhibitors, including compounds 1, 16 and 97. Then the activity-based probe (FP-PEG-TAMRA) was added to each sample to label the serine hydrolases in the lysate.

The target in a further data set is T2, ACOT4 (Homo sapiens, UniProt Q8N9L9).
T2 sequence (Q8N9L9 1-421): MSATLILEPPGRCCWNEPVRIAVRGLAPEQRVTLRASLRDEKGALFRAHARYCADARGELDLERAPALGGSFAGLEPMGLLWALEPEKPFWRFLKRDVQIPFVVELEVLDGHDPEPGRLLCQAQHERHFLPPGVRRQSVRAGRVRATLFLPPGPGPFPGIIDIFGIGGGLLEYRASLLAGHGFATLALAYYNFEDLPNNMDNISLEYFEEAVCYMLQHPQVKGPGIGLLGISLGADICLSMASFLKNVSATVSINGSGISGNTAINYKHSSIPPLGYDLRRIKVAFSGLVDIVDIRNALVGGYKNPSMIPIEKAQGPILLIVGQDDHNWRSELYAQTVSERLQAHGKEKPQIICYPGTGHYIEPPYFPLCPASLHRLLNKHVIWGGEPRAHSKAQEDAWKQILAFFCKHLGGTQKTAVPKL
Briefly: FP-PEG-TAMRA labeling of recombinant ACOT4. As to conditions: recombinant enzyme, 20 μM final, pH 7.8. It counts as binding. How it is done:
Additionally, studies were performed to test the selectivity of Compounds 1, 16, 22, and 37 for the FASN thioesterase over its most closely related human homolog, the enzyme called ACOT4 (see FIG. 3). Both proteins were mixed and pretreated with the compound (20 μM final, pH 7.8) before addition of the fluorescent activity probe FP-PEG-TAMRA. Respective fluorescence of the bands was detected on a Hitachi flatbed scanner and a greyscale version used for quantitative analysis using ImageJ. Recombinant forms of each enzyme were incubated with compound 16, compound 1, compound 37, and compound 22. FP-TAMRA was included in this mixture to label the active site of the FASN thioesterase and ACOT4. […] These findings further attest to the high degree of selectivity of compounds 1, 16, 37 and 22 for the FASN thioesterase.

Data set [1] in a line: Aqueous solubility in pION's buffer. It counts as physicochemical.
The nature of data set [2]: Aqueous solubility in 1x PBS, pH 7.4. It counts as physicochemical. As to conditions: pH 7.4, aqueous buffer.
Data set [3] in a line: Hepatic microsome stability, human. It counts as in vitro ADME. From the text: The microsomal stability assay is commonly used to rank compounds according to their metabolic stability. This assay addresses the pharmacologic question of how long the parent compound will remain circulating in plasma within the body.

“And” between values parts separate entries of the source, which are not always exact repeats. Equal entries are not always repeated.

T1 sequence (P49327 whole entry): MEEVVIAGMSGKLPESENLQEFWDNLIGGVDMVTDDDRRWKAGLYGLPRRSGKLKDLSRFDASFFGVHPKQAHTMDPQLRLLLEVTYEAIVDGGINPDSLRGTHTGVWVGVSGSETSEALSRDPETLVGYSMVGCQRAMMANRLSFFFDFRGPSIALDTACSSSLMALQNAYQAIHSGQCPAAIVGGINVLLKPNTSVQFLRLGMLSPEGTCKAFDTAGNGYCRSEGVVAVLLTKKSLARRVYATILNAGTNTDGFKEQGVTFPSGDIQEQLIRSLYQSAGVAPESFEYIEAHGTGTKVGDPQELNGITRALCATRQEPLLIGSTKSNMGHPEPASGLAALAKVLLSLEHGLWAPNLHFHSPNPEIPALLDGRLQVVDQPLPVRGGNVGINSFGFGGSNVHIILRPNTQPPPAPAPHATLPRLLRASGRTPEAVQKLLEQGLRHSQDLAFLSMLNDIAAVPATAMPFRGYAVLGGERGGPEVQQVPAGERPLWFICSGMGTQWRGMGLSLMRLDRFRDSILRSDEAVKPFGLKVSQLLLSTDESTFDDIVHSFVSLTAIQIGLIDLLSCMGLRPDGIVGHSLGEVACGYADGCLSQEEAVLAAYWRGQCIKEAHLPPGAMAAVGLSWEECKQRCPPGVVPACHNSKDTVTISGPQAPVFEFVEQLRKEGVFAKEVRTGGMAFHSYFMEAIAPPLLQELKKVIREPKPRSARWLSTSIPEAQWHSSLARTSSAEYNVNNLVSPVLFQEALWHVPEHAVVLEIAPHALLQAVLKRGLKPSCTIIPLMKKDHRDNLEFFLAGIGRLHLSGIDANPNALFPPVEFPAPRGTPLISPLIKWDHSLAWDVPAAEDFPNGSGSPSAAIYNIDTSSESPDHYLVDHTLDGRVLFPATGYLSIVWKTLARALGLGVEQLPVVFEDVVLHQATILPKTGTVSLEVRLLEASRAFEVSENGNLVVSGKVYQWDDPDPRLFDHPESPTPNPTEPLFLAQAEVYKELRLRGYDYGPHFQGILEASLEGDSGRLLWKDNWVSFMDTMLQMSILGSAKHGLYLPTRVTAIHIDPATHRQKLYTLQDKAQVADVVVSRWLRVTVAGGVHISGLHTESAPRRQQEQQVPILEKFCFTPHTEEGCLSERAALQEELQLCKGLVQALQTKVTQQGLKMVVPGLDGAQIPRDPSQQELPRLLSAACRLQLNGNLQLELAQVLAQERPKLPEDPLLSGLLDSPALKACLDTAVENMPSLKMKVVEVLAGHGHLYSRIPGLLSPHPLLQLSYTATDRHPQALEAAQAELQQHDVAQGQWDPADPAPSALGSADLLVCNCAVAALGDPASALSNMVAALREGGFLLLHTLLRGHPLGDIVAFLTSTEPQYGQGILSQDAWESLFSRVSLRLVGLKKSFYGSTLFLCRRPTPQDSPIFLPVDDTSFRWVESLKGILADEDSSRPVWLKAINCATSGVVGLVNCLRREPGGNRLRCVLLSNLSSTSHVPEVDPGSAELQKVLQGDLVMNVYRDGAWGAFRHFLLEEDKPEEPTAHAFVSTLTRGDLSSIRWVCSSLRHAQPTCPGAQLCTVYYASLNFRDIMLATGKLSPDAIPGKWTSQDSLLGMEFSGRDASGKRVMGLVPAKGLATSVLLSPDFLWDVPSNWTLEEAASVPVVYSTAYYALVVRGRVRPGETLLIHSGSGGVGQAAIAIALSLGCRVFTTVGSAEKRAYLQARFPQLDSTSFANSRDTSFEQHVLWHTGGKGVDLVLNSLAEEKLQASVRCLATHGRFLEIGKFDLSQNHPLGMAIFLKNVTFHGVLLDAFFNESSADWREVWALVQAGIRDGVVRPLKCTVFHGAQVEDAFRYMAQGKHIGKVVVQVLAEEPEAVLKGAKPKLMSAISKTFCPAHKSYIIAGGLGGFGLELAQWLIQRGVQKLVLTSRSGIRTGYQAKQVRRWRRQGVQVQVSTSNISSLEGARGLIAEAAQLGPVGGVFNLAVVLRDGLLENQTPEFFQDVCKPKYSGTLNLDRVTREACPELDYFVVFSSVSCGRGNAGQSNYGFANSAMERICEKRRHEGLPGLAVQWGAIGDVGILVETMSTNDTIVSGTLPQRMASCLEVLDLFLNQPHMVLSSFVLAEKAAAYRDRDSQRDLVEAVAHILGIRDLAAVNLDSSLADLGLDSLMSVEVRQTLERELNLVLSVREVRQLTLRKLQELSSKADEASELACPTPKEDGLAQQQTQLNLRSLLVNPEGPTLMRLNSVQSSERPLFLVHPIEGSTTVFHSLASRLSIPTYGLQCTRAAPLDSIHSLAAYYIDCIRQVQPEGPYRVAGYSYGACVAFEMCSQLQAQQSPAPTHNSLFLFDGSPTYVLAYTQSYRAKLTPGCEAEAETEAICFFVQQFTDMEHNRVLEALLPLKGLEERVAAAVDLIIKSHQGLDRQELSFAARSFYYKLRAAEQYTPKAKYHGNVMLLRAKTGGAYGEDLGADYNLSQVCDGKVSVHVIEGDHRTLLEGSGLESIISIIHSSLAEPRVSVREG

For the compound `CCC(CC)C(=O)Nc1nc(-c2ccc(S(=O)(=O)N3CCOCC3)cc2)cs1` [Compound 16, 2-Ethyl-N-(4-(4-(morpholinosulfonyl)phenyl)thiazol-2-yl)butanamide], the “inhibition of FASN (blocking of FP-TAMRA binding)” value at FASN is “showed inhibition of FASN”. At ACOT4, the “activity labeling of ACOT4” value is given as “without effect”. For the same compound, the solubility in data set [1] (aqueous buffer, pH 5.0) is 0.19 µg/mL and 0.45 µM; in data set [1] (pH 6.2, aqueous buffer), 0.06 µg/mL and 0.14 µM; in data set [1] (pH 7.4, aqueous buffer), 0.13 µg/mL and 0.31 µM; in data set [2] it was 0.02 µg/mL and 0.05 µM. Moreover, the “Hepatic Microsome Stability (% Remaining at 1 hr)” value in data set [3] (Human, 1 hr) stood at 4.93%. Also, the “liver microsome stability” value in data set [3] (human liver microsomes) is listed as “poor stability”.

The values are drawn from patent publication US10071976B2, “Small molecule fatty acid synthase inhibitors” (Sanford Burnham Prebys Medical Discovery Institute, priority 2014, dated 2018).
